Measurements reported in patent US20150072969A1, “PHENYL ALKANOIC ACID DERIVATIVES AS GPR AGONISTS” (PIRAMAL ENTERPRISES LIMITED, priority 2012, published 2015).

Target: T1, human GPR40 (Homo sapiens, UniProt O14842)
T1 construct: expressed in transfected cells
Assay: Inositol phosphate accumulation assay in FFAR1 (GPR40) CHOK1 clone
Type: cell-based
Settings: GPR40 agonist activity; intracellular inositol phosphate release in CHOK1 cells stably expressing recombinant human GPR40; 1 h incubation at 37° C.
Method: The inositol phosphate accumulation assay was performed to characterise the GPR40 agonist activity of the compounds of the present invention.
The assay was carried out in accordance with the method substantially as described in Diabetes, 2008, 57(8):2211-2219 and PLoS One, 2011, 6(11):e27270.
A stable FFAR1 (GPR40) CHOK1 clone was used to determine the GPR40 agonist activity of the test compounds (compounds of the present invention synthesized in the above Examples). The stable FFAR1 (GPR40) CHOK1 clone expressing recombinant human GPR40 was generated according to the procedure described herein below.
Full-length human GPR40 cDNA (Accession Number: NM_005303) was cloned into mammalian expression vector (pReceiver) and was stably transfected into (Chinese Hamster Ovary) CHOK1 cells using Amaxa technology. 2 μg of pReceiver hGPR40 were transfected into 1×10^6 CHOK1 cells in 6 well plates. The cells were split into three 100 mm cell culture plates on the second day and geneticin (800 μg/ml) was added to the cell culture on the third day. The selection medium comprising Ham's F-12 K supplemented with FBS (10%) and geneticin (800 μg/ml) was changed every three days until colonies were formed. The colonies isolated were further purified (single cell cloning) after 14 days to obtain pure isogenic single cell homogenous population of cells expressing the GPR40 receptor protein on the cell surface. GPR40 receptor expression on cell surface was measured by flow cytometry. The in-house transgenic cell line (clone) created was labeled as FFAR1 (GPR40) CHOK1 clone.
FFAR1 (GPR40) CHOK1 cells were suspended in culture medium comprising Ham's F-12 K supplemented with FBS (10%) and geneticin (800 μg/ml). Cells were seeded at a density of 2×10^4 cells per well in a 384 well tissue culture plate and cultured overnight. The medium was discarded and the cells were further resuspended in a stimulation buffer comprising HEPES (10 mM), glucose (5.5 mM), CaCl2 (1 mM), NaCl (150 mM), KCl (4.2 mM), MgCl2 (0.5 mM) and LiCl (50 mM) having a pH of 7.6. The test compounds (representative compounds of Formula (I)) 10 mM stock were prepared in DMSO and subsequently log fold dilution of the test compounds were carried out in the stimulation buffer. Various concentrations of the test compounds and the standard DMSO solution were added to each well. The plates were further incubated at 37° C., 5% CO2 incubator for 1 h. The final concentration of the test compounds in the each well varied from 1 μM to 10 μM. The DMSO concentration in the assay was 0.1% or less. After incubation, lysis reagent and anti-Tb conjugate were added to each well. The intracellular Inositol Phosphate release and accumulation in the test compounds were measured by the binding ability of the anti-Tb conjugate with the inositol phosphate inherently produced in each well as compared with the inositol phosphate coupled to dye d2 added externally to each well. The plates were then read using Perkin Elmer (Envision) plate reader and the fluorescence signal was captured. The EC50 values for the test compounds were calculated from the non linear regression sigmoidal curve graphs plotted between the concentrations of the test compounds and the fluorescence intensity.

T1 sequence (O14842 whole entry): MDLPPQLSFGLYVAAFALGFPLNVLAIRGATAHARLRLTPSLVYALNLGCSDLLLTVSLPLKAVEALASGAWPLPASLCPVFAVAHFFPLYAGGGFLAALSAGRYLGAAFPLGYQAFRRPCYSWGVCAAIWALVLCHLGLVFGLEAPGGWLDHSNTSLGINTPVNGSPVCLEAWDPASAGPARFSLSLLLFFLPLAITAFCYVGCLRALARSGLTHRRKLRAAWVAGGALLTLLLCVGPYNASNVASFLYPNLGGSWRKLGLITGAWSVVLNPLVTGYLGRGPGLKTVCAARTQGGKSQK

Question: For `O=C(O)CC1(c2ccc(OCc3cccc(-c4ccc(OCC5CCC5)cc4)c3)cc2)COC1` [Example 75, 2-(3-(4-((4′-(Cyclobutylmethoxy)-[1,1′-biphenyl]-3-yl)methoxy)phenyl)oxetan-3-yl)acetic acid], which EC50 is on record?
Answer: Its EC50 is greater than 500 nM.

Question: For `Cc1cc(OCCCS(C)(=O)=O)cc(C)c1-c1cccc(COc2ccc(C3(CC(=O)O)COC3)cc2F)c1` [Example 16, 2-(3-(4-((2′,6′-Dimethyl-4′-(3-(methylsulfonyl)propoxy)-[1,1′-biphenyl]-3-yl)methoxy)-3-fluorophenyl)oxetan-3-yl)acetic acid], which EC50 is on record?
Answer: The EC50 was greater than 500 nM.

Question: `O=C(O)CC1(c2ccc(OCc3cccc(-c4ccc(C(F)(F)F)cc4)c3)c(F)c2)COC1` [Example 98, 2-(3-(3-Fluoro-4-((4′-(trifluoromethyl)-[1,1′-biphenyl]-3-yl)methoxy)phenyl)oxetan-3-yl)acetic acid] was tested. Which EC50 did it give?
Answer: The EC50 was greater than 500 nM.

Question: With `COc1ccc(COc2ccc(C3(CC(=O)O)COC3)cc2)cc1C(F)(F)F` [Example 22] as the compound, how does the EC50 read?
Answer: Its EC50 is greater than 500 nM.

Question: How did the EC50 turn out when `CC(C)Sc1ccc(-c2cccc(COc3ccc(C4(CC(=O)O)COC4)cc3)c2)cc1` [Example 89, 2-(3-(4-((4′-(Isopropylthio)-[1,1′-biphenyl]-3-yl)methoxy)phenyl)oxetan-3-yl)acetic acid] was run?
Answer: Its EC50 is 100 to 500 nM.

Question: How did the EC50 turn out when `CS(=O)(=O)CCCOc1ccc(-c2cccc(COc3ccc(C4(CC(=O)O)COC4)cc3)c2)cc1C(F)(F)F` [Example 87, 2-(3-(4-((4′-(3-(Methylsulfonyl)propoxy)-3′-(trifluoromethyl)-[1,1′-biphenyl]-3-yl)methoxy)phenyl)oxetan-3-yl)acetic acid] was run?
Answer: The EC50 was greater than 500 nM.

Question: How did the EC50 turn out when `O=C(O)CC1(c2ccc(OCc3cccc(-c4ccc(OCC5CCS(=O)(=O)CC5)cc4Cl)c3)cc2)COC1` [Example 70, 2-(3-(4-((2′-Chloro-4′-((1,1-dioxidotetrahydro-2H-thiopyran-4-yl)methoxy)-[1,1′-biphenyl]-3-yl)methoxy)phenyl)oxetan-3-yl)acetic acid] was run?
Answer: The EC50 was less than 100 nM.

Question: With `Cc1cc(OCC2CCOCC2)cc(C)c1-c1cccc(COc2ccc(C3(CC(=O)O)COC3)cc2)c1` [Example 43, 2-(3-(4-((2′,6′-Dimethyl-4′-((tetrahydro-2H-pyran-4-yl)methoxy)-[1,1′-biphenyl]-3-yl)methoxy)phenyl)oxetan-3-yl)acetic acid] as the compound, how does the EC50 read?
Answer: The EC50 was less than 100 nM.

Question: For `O=C(O)CC1(c2ccc(OCc3ccc(-c4ccccc4)cc3)c(F)c2)COC1` [Example 14, 2-(3-(4-([1,1′-Biphenyl]-4-ylmethoxy)-3-fluorophenyl)oxetan-3-yl)acetic acid], which EC50 is on record?
Answer: Its EC50 is greater than 500 nM.

Question: How did the EC50 turn out when `O=C(O)CC1(c2ccc(OCc3cccc(-c4ccccc4)c3)cc2)COC1` [Example 4, 2-(3-(4-([1,1′-Biphenyl]-3-ylmethoxy)phenyl)oxetan-3-yl)acetic acid] was run?
Answer: The EC50 was 100 to 500 nM.

Question: With `Cc1cc(OC2CCS(=O)(=O)CC2)cc(C)c1-c1cccc(COc2ccc(C3(CC(=O)O)COC3)cc2)c1` [Example 57, 2-(3-(4-((4′-((1,1-Dioxidotetrahydro-2H-thiopyran-4-yl)oxy)-2′,6′-dimethyl-[1,1′-biphenyl]-3-yl)methoxy)phenyl)oxetan-3-yl)acetic acid] as the compound, how does the EC50 read?
Answer: Its EC50 is 100 to 500 nM.

Question: For `Cc1cc(OCCCS(C)(=O)=O)ccc1-c1cccc(COc2ccc(C3(CC(=O)O)COC3)cc2)c1` [Example 77, 2-(3-(4-((2′-Methyl-4′-(3-(methylsulfonyl)propoxy)-[1,1′-biphenyl]-3-yl)methoxy)phenyl)oxetan-3-yl)acetic acid], which EC50 is on record?
Answer: Its EC50 is less than 100 nM.

Question: With `Cc1cc(OCC2(C)COC2)cc(C)c1-c1cccc(COc2ccc(C3(CC(=O)O)COC3)cc2)c1` [Example 51, 2-(3-(4-((2′,6′-Dimethyl-4′-((3-methyloxetan-3-yl)methoxy)-[1,1′-biphenyl]-3-yl)methoxy)phenyl)oxetan-3-yl)acetic acid] as the compound, how does the EC50 read?
Answer: Its EC50 is greater than 500 nM.

Question: `Cc1cc(OCC2CCCO2)cc(C)c1-c1cccc(COc2ccc(C3(CC(=O)O)COC3)cc2)c1` (stereo not shown) [Example 47, 2-(3-(4-((2′,6′-Dimethyl-4′-((tetrahydrofuran-2-yl)methoxy)-[1,1′-biphenyl]-3-yl)methoxy)phenyl)oxetan-3-yl)acetic acid] was tested. Which EC50 did it give?
Answer: Its EC50 is less than 100 nM.

Question: `O=C(O)CC1(c2ccc(OCc3cccc(-c4ccc(OCC5(CO)COC5)cc4Cl)c3)cc2)COC1` [Example 66, 2-(3-(4-((2′-Chloro-4′-((3-(hydroxymethyl)oxetan-3-yl)methoxy)-[1,1′-biphenyl]-3-yl)methoxy)phenyl)oxetan-3-yl)acetic acid] was tested. Which EC50 did it give?
Answer: The EC50 was less than 100 nM.

Question: Which EC50 does the source give for `CCCCSc1ccc(-c2cccc(COc3ccc(C4(CC(=O)O)COC4)cc3)c2)cc1` [Example 85, 2-(3-(4-((4′-(Butylthio)-[1,1′-biphenyl]-3-yl)methoxy)phenyl)oxetan-3-yl)acetic acid] here?
Answer: Its EC50 is greater than 500 nM.
